Data on 3 compounds can be found in US9394547B2, “Method and apparatus for delivery of molecules to cells” (CITY UNIVERSITY OF HONG KONG, priority 2012, dated 2016).

One series deals with MC-3T3 cells. The experiment in a line: Flow cytometry of fluorescein intracellular delivery with diamond nanocone array. It counts as cell-based, Mouse. The following applies: fluorescein 1 mg/ml. As to the method:
Mouse MC3T3-E1 pre-osteoblasts, which can differentiate into osteoblasts, were used in the present study. The cells were cultured at 37° C. with 5% carbon dioxide (CO2) and 95% humidified air in Dulbecco's Modified Eagle Medium (DMEM) (Gibco) supplemented with 10% fetal bovine serum (FBS) (Gibco). The medium was renewed every 2-3 days and confluent cells were subcultured through trypsinization.
Three groups of cells were studied. One group was untreated cells. Other two groups included the cells which were treated by smooth silicon substrate and diamond nanocone array. For treatment, a volume of […] MC-3T3 cell suspension was applied to the substrate with a speed of about 3 ms^−1 by a pipette (FIG. 16). After the application, the cell suspension was collected and pipetted to the substrate again with a similar speed. Such cell treatment procedure was repeated for 15 times. The same procedures were used in all experiments for enhanced intracellular delivery. Following cell treatment, cells were plated into 96-well microtiter plates. After 22 hours, morphology of each group of cells was observed by optical microscopy. After 24 hours, cell viability was determined by MTT assay.
Subsequently, the enhanced intracellular delivery capability of the diamond nanocone array was firstly assessed by investigating the fluorescence intensity of fluorescein sodium salt stain in treated cells by quantitative analysis through flow cytometry. MC-3T3 cells were harvested at a density of 10^4 cells/ml. Fluorescien was added to cell growth medium at a concentration of 1 mg/ml. After the addition of fluorescein, a volume of 1 ml of this cell suspension was treated with the same method as that described above. Two experiments were arranged in investigating the intracellular delivery of fluorescein sodium salt. In one experiment, the negative control was to apply cells to a smooth silicon substrate without the nanocone array. In the other experiment, untreated cells were used as the control (i.e. neither nanocone array nor smooth Si substrate was used). After 15 min of staining, the suspensions of control and treated group cells were pelleted by centrifugation (Spectrafuge™ 16 M, Labnet) at 6000 rpm for 3 min, after which the supernatants were removed. The cell pellets were washed by 1 mL of phosphate buffered saline (PBS) and then resuspended throughly. The cell suspensions were centrifuged again at 6000 rpm for 3 min, and the cell pelletes were washed by PBS for 3 times in total. Finally, the cell suspensions were prepared with a concentration of 10^4 cells in PBS and then immediately analysed using a flow cytometer (Becton DICKINSON, FACSCalibur cytometer) by counting 1×10^4 cells per sample. […]
In general terms: A flow cytometer gives signals particle by particle.

Another series has as its system A549 cells. The experiment in a line: Live-cell confocal imaging of luminescent iridium(III) complex delivery. It counts as cell-based. As for the experimental part: In this embodiment, suspension with the subjects was applied to the nanoneedle array at a speed of about 3.0 m/s. After treatment with the nanooneedles, the cells were grown on a sterile glass coverslip for 19 hours followed by PBS washing and then investigated by fluorescence confocal microscopy. Negligible cell death was found under microscopy in the experiments. FIG. 12a is a representative image showing the intracellular delivery of the iridium(III) polypyridine complex to A549 cells. […] In comparison, FIG. 12b is the image of the control group in which the cells were incubated with the complex for 19 hours but not treated with nanoneedles before incubation. FIGS. 12a and 12b were taken under the same microscope settings. […] (The arrows in the figures indicate the cells in which direct nucleic delivery of the luminescent complex is achieved with diamond needles treatment. The scale bars in FIGS. 12a), b), e) and f) indicate 25 μm).
The fluorescence intensities in the cytoplasm of the two selected cells were normalized to be the same value and the fluorescence intensities in the nucleus of the two cells were compared. The representative results are shown in FIG. 12c for a nanoneedle-treated cell and FIG. 12d for a cell without treatment. […] For the nanoneedle treated group, unexpectedly, a number of cells in which the fluorescence signal was almost evenly distributed in the entire cells were found. For this reason, it was not apparent to locate their nuclei (indicated by the arrows in FIGS. 12e and 12f).
A549 cells were maintained as exponentially growing cultures in a Dulbecco's modified Eagle's medium (DMEM) with 10% FBS and 1% penicillin/streptomycin at 37° C. The cells were trypsinized and suspended in DMEM medium. There are about 6×10^4 cells in one milliliter. Iridium(III) polypyridine complex was added to the cell medium at a concentration of 0.1 μM. […]
A549 cell suspension in medium/DMSO (99:1, v/v) containing [Ir(ppy)2(bpy-Et)](PF6) (0.1 μM) was prepared. […] The emission was measured using a long-pass filter at 532 nm.

Series [1] has as its system primary hippocampal neurons. Put plainly: Cytosolic delivery into primary hippocampal neurons by diamond nanoneedle array under centrifugation (live/dead staining). It counts as cell-based. The following applies: around 300 rpm (12.8 g). As to the method:
Intracellular delivery into post-mitotic cells, such as neuron, has always been challenging. […] Compared with fibroblast cells, neurons are more vulnerable to membrane disruption induced by nanoneedle arrays. Generally, a relatively lower speed would be required to achieve similar delivery efficiency as in fibroblast cells (FIG. 6). […] Therefore, a centrifuging speed of 300-400 rpm was selected for following experiments with primary neurons. FIG. 6a are representative images of fibroblast cells after successful cytosolic delivery of EthD-1; FIG. 6b is a chart showing quantification of delivery efficiency; and FIG. 6c is a chart showing quantification of cell viability after being treated with nanoneedles arrays; all at a scale bar of 100 um.
Hippocampal neuron cultures were prepared following the method previously described. Briefly, dissociated neurons were prepared from hippocampi dissected from E18 Sprague Dawley rats by enzymatic treatment with papain (Sigma) for 30 min at 37° C. followed by trituration with a 1 ml pipette tip. Before seeding neurons, all substrates were pre-coated with polylysine (Sigma, 100 μg ml^−1) and laminin (Invitrogen, 10 μg ml^−1). Neuron cells were treated with nanoneedle arrays at 6-7 days in vitro (DIV).
Nanoneedle array was placed to float on culture medium with the needles facing toward cells. […]

Another series relates to NIH3T3 fibroblast cells. The experiment in a line: Cytosolic delivery into fibroblast cells by diamond nanoneedle array under centrifugation (live/dead calcein AM/EthD-1 staining). The class given is cell-based. The text has this: This kit has been widely used to characterize cell viability and cytotoxicity. In the assays, with application of nanoneedle array to cells, the membrane-permeant calcein AM enters cells and is cleaved by esterases in live cells to yield cytoplasmic green fluorescence; while the membrane-impermeant ethidium homodimer-1 (EthD-1) labels nucleic acids of membrane-disrupted cells with red fluorescence. […] In comparison, dead cells were labeled with only red fluorescence (FIG. 5). FIG. 5a are representative images of fibroblast cells after successful cytosolic delivery of EthD-1; FIG. 5b is a chart showing quantification of delivery efficiency; and FIG. 5c is a chart showing quantification of cell viability after being treated with nanoneedles arrays; all at a scale bar of 100 um.
In an embodiment, the penetration and subsequent disruption of cell membrane by nanoneedles was precisely controlled by centrifugation-induced supergravity to achieve reliable, highly efficient, diffusion based cytosolic delivery. In a specific embodiment, in order to optimize the force applied onto the cell membranes through nanoneedles, the whole setup (cell culture plus nanoneedle array) was maintained in supergravity by centrifugation at a series of speeds from 300 rpm (12.8 g, RCF) to 1000 rpm (142 g). […]

Structures can show the parent of a compound that is named as a salt.

Take `O=C1OC2(c3ccc(O)cc3Oc3cc(O)ccc32)c2ccccc21` [fluorescein sodium salt]: the “M3, percentage of cells with fluorescence intensity 1×10^2 to 1×10^3” value was 73.5% in the series on MC-3T3 cells (FIG. 20, cells treated with the nanocone array) and 62.4% in the series with MC-3T3 cells (FIG. 21, cells treated with the nanocone array). Further, the “M2, percentage of cells with fluorescence intensity 1×10^1 to 1×10^2” value with MC-3T3 cells (FIG. 20, control cells applied to smooth Si substrate) came to 63.1%; in the series on MC-3T3 cells (FIG. 21, untreated sample (no nanocone, no Si substrate)) it was 70.0%.

“[Ir(ppy)2(bpy-Et)](PF6) [iridium(III) polypyridine complex]”: the fluorescence signal result in the series on A549 cells (A549 cells, 0.1 μM, 19-hour incubation, not treated with nanoneedles) is “extremely weak”. In the series on A549 cells (A549 cells, 0.1 μM, nanoneedle treated, 19 hours), the intracellular localization entry is “mainly localized in the perinuclear region”. In addition, the nuclear uptake result with A549 cells (by diffusion, without nanoneedles) was “negligible nuclear uptake”.

Regarding ethidium homodimer-1 [EthD-1], in series [1], the “delivery efficiency of EthD-1” value is “about 80%”. The “cytosolic delivery efficiency of EthD-1” value in the series with NIH3T3 fibroblast cells (centrifugation 300 rpm) is listed as about 5%; in the series with NIH3T3 fibroblast cells (centrifugation 500 rpm or above), about 80%.
